According to patent US9789096B2, “Methods and compositions for selective and targeted cancer therapy” (Board of Regents of the University of Texas System, priority 2013, dated 2017):

Legend:
H2122 = assay: Cell viability dose-response, H2122; format: cell-based, human; conditions: text b138; read-out: IC50 towards H2122 cells
How it was run: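 Cells plated at 15% confluence in RPMI-1640 with 5% FBS and 2 mM L-glutamine, treated with compound in a 12-point, 3-fold dilution series from 50 micromolar, in duplicate. ATP measured by Cell Titer Glo after 4 days; IC50 taken from the dose-response curve.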

HMOX2 = biological target: T1, HMOX2 (Homo sapiens, UniProt P30519); assay: Immunoprecipitation of SW208108-bound protein with anti-HMOX2; format: binding
T1 construct: endogenous in cells; host or cells: H2122 cells (homogenate / lysate)
Source text: FIG. 7M. HMOX2 binds to SW208108 and is partially competed by an active competitor. Lysates collected from H2122 cells treated with SW208108 with or without competitor were immunoprecipitated with either IgG or anti-HMOX2 and then “clicked” to a dye-azide (as described in FIG. 7A). HMOX2 binds to SW208108 and binding is partially diminished in the presence of a competitor.
However, when HO2 was knocked out from H2122 cells using Crisper technology (FIG. 7O), no toxicity was observed, and SW208108 and related compounds retained toxicity towards H2122 cells (FIG. 7P). We conclude that HO2 is not required for cell survival or for the cytotoxicity of the selective toxins.

SCD1 = biological target: T2, SCD1 (Mus musculus, UniProt P13516); assay: Tritium release assay of SCD1 activity, mouse preputial gland; format: biochemical; conditions: preputial gland lacks CYP4F11
T2 construct: tissue derived from mouse liver and preputial gland was independently exposed; from tissue; host or cells: mouse liver
Source text: FIGS. 10A-10F. Sensitive cells express high levels of CYP4 family members. FIG. 10A. relative expression levels of mRNA for a panel of cytochrome P450 enzymes from the cancer cell line encyclopedia (CCLE, http://www.broadinstitute.org/ccle) showing CYP4F11 in particular is highly expressed in 4 NSCLC lines that are sensitive to SCD1 inhibition. FIG. 10B. Western blot showing that CYP4F11 protein is expressed in all sensitive cell lines but not in the majority of insensitive cell lines. FIG. 10C. […] FIG. 10D. Cells were incubated with either a methoxy-containing oxalamide, which represents the pro-drug form, or the hydroxy containing oxalamide, which represents the active form of the drug. […] FIG. 10E. 293t cells were transfected with mammalian expression plasmids containing SCD1 or CYP4F11 as indicated. Cells were treated with either SW208108 or its demethylated congener, SW211666, and conjugated with a fluorescent dye as described in FIG. 7. Cells containing CYP4F11 form covalent adducts with both the pro-drug (methoxy) and drug form (demethylated, i.e. OH). […] FIG. 10F. Shown are the results of a tritium release assay in which tritiated water is produced from tritiated stearoyl CoA by the action of SCD1. […] By contrast, SW211666 but not SW208108 inhibits SCD1 in mouse preputial gland, which lacks CYP4F11 (bottom). […]

T2 sequence (P13516 whole entry): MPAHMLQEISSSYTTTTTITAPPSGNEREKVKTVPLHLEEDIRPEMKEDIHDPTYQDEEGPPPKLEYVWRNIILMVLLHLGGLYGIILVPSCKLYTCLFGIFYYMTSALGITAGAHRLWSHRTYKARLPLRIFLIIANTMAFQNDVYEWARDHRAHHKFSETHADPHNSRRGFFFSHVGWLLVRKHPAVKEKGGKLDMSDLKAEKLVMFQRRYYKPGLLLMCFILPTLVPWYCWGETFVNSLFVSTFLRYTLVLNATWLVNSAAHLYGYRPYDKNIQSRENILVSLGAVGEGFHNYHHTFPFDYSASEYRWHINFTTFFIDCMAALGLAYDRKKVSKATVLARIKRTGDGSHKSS
T1 sequence (P30519 whole entry): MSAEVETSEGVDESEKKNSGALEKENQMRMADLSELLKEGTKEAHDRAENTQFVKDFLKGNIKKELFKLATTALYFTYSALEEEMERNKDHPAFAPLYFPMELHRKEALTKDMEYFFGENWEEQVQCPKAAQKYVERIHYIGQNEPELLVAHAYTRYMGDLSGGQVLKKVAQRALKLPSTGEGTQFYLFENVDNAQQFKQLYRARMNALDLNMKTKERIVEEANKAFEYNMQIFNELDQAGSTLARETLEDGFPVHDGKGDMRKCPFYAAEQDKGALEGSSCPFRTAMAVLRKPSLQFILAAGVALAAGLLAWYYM

In the case of `C#CCOc1ccc(C(=O)c2ccc(NC(=O)C(=O)NCCc3ccc(OC)cc3)cc2)cc1` [SW208108], the IC50 (H2122) is reported as 30 nM, the “covalent binding to HO2 (HMOX2)” value (HMOX2) is reported as “covalently bound” and the “inhibition of SCD1 activity in mouse preputial gland tissue” value (SCD1) is reported as “not in the preputial gland”.
